We go through 3 molecules from US7521469B2, “Phosphinic amino acid compounds” (Les Laboratoires Servier, priority 2005, dated 2009).

Test [1] has as its target ACE (recombinant human form) (Homo sapiens, UniProt P12821). Description: In vitro inhibitory effect on angiotensin converting enzyme (ACE), quenched-fluorescence substrate. Type of test: biochemical. The note with it: inhibitor incubated with enzyme 45 minutes; substrate Mca-Arg-Pro-Pro-Gly-Phe-Ser-Pro-DpaCOOH 5 μM. The procedure:
(§1) In vitro inhibitory effect on angiotensin converting enzyme (ACE) and endothelin converting enzyme (ECE)
(§2) In order to compare their specificity, the compounds of the Examples were tested on 2 enzymes: ACE (recombinant human form) and ECE (recombinant human form of the isoform ECE-1c).
(§3) The tests were carried out in duplicate in 96-well plates. The inhibitor was incubated together with the enzyme for 45 minutes before the addition of a quenched-fluorescence substrate. The fluorescence emitted was detected and measured in a Fluoroscan Ascent plate reader (Thermo-Labsystems).
(§4) The fluorogenic substrates used are: Mca-Arg-Pro-Pro-Gly-Phe-Ser-Pro-DpaCOOH (5 μM) with ACE, and Mca-Arg-Pro-Pro-Gly-Phe-Ser-Ala-Phc-Lys(Dnp)COOH (5 μM; R&D Systems) with ECE.

The target of test [2] is T1, ECE (recombinant human form of the isoform ECE-1c) (Homo sapiens, UniProt P42892).
T1 sequence (P42892 1-754 isoform P42892-3): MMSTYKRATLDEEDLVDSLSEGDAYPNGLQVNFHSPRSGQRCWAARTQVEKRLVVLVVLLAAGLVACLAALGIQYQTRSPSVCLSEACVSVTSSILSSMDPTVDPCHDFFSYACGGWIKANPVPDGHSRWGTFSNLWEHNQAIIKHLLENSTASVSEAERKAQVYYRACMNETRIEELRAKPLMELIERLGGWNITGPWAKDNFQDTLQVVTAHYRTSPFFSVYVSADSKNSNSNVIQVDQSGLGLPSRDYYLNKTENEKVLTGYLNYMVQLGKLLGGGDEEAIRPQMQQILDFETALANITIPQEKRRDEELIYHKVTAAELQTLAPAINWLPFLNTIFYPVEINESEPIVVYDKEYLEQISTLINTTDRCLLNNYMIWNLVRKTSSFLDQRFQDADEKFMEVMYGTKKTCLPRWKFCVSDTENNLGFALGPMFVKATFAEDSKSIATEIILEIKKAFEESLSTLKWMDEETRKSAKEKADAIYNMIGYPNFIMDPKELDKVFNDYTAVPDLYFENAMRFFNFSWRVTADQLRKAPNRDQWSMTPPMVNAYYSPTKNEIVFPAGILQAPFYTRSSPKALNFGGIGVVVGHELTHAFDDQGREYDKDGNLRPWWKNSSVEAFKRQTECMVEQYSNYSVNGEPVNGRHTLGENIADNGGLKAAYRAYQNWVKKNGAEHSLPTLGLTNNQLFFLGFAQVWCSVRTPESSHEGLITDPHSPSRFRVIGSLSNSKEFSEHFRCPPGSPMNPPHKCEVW
Description: In vitro inhibitory effect on endothelin converting enzyme (ECE), quenched-fluorescence substrate. It is filed as biochemical. Conditions: inhibitor incubated with enzyme 45 minutes; substrate Mca-Arg-Pro-Pro-Gly-Phe-Ser-Ala-Phc-Lys(Dnp)COOH 5 μM. The procedure: as §1, §2, §3, §4

Broadly, the IC50 is the concentration needed to halve the response being measured.

ACE (recombinant human form), sequence (P12821 30-1306): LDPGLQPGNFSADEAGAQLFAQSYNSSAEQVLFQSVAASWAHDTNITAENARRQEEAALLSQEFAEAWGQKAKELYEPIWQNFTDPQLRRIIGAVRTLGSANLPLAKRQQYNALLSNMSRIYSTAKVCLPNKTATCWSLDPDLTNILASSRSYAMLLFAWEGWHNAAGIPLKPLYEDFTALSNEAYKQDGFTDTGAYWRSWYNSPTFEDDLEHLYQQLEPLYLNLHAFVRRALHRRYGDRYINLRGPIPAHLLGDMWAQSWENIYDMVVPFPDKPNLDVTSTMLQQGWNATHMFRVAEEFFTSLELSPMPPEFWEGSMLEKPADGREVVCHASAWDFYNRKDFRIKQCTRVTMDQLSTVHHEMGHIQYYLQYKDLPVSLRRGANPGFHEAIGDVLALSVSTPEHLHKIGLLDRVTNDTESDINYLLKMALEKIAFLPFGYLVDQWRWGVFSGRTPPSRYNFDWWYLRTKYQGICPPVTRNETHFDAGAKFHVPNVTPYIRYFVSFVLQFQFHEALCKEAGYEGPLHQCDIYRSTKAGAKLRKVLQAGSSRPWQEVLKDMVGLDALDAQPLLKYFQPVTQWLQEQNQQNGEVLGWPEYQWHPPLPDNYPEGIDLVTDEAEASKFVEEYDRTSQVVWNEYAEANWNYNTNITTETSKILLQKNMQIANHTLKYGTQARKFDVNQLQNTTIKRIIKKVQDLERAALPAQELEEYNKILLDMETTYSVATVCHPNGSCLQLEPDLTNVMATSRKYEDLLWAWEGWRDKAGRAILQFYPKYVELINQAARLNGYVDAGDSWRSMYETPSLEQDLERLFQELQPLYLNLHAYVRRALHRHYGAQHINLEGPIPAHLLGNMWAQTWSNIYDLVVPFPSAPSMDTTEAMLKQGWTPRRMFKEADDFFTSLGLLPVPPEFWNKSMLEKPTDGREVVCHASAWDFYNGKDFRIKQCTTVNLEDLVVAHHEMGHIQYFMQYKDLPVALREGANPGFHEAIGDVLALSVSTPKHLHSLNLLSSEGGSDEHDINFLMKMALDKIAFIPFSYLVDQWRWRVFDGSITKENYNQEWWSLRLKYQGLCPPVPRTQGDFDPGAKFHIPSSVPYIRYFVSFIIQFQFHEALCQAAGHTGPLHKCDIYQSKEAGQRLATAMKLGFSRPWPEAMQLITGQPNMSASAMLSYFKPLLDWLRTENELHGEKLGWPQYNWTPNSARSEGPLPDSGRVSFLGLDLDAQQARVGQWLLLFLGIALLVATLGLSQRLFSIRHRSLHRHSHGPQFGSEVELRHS

Turning to `O=C(N[C@@H](Cc1ccccc1)P(=O)(O)C[C@H](Cc1cc(-c2ccccc2)no1)C(=O)N[C@@H](Cc1ccccc1)C(=O)O)OCc1ccccc1` [Example 2, (5R,8R,11S)-5,11-Dibenzyl-6-hydroxy-3,9-dioxo-1-phenyl-8-[(3-phenyl-5-isoxazolyl)methyl]-2-oxa-4,10-diaza-6-phosphadodecan-12-oic acid 6-oxide], the IC50 in test [1] turned out to be 3.8 nM; in test [2], 7.7 nM.

On to `O=C(N[C@@H](Cc1ccccc1)P(=O)(O)C[C@H](Cc1cc(-c2ccccc2)no1)C(=O)N[C@@H](Cc1c[nH]c2ccccc12)C(=O)O)OCc1ccccc1` [Example 1, (5R,8R,11S)-5-Benzyl-6-hydroxy-11-(1H-indol-3-ylmethyl)-3,9-dioxo-1-phenyl-8-[(3-phenyl-5-isoxazolyl)methyl]-2-oxa-4,10-diaza-6-phosphadodecan-12-oic acid 6-oxide], for which the IC50 stood at 36 nM in test [1] and 8 nM in test [2].

`O=C(N[C@@H](Cc1ccccc1)P(=O)(O)C[C@H](Cc1cc(-c2ccccc2)no1)C(=O)N[C@@H](Cc1ccc(O)cc1)C(=O)O)OCc1ccccc1` [Example 3, (5R,8R,11S)-5-Benzyl-6-hydroxy-11-(4-hydroxybenzyl)-3,9-dioxo-1-phenyl-8-[(3-phenyl-5-isoxazolyl)methyl]-2-oxa-4,10-diaza-6-phosphadodecan-12-oic acid 6-oxide]: the IC50 in test [1] and in test [2] was 1.4 nM throughout.
